Source: ChEMBL document CHEMBL1141022, “1,2,3-Triazole derivatives as new cannabinoid CB1 receptor antagonists” (Bioorg Med Chem Lett, 2009)

Experiments:
Cannabinoid receptor 1 [1] = target: T1, Cannabinoid receptor 1 (Homo sapiens, UniProt P21554); assay: Displacement of [3H]CP-55940 from human CB1 receptor expressed in HEK293 cells at 10 uM; assay type: cell-based
Homo sapiens = organism: Homo sapiens; assay: Selectivity ratio of IC50 for human CB2 receptor to IC50 for human CB1 receptor
Cannabinoid receptor 2 = Cannabinoid receptor 2 (Homo sapiens, UniProt P34972); assay: Displacement of [3H]CP-55940 from human CB2 receptor expressed in HEK293 cells; assay type: cell-based
Chain of Cannabinoid receptor 2 (P34972 whole entry): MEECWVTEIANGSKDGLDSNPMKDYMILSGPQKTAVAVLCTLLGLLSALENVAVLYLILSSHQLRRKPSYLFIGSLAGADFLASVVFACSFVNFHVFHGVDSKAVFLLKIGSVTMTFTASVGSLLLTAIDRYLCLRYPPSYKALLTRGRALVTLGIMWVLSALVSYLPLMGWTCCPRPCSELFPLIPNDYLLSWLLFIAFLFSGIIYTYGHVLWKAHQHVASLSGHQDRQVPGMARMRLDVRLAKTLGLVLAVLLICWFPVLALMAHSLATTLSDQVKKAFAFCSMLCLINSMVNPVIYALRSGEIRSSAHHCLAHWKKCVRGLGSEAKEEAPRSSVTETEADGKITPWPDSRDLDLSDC

Cannabinoid receptor 1 [2] = target: T1, Cannabinoid receptor 1; assay: Antagonist activity at human CB1 receptor expressed in HEK293 cells assessed as inhibition of Eu-GTP binding; assay type: cell-based
Cannabinoid receptor 1 [3] = target: T1, Cannabinoid receptor 1; assay: biochemical; assay type: cell-based, HEK293

T1 sequence (P21554 whole entry): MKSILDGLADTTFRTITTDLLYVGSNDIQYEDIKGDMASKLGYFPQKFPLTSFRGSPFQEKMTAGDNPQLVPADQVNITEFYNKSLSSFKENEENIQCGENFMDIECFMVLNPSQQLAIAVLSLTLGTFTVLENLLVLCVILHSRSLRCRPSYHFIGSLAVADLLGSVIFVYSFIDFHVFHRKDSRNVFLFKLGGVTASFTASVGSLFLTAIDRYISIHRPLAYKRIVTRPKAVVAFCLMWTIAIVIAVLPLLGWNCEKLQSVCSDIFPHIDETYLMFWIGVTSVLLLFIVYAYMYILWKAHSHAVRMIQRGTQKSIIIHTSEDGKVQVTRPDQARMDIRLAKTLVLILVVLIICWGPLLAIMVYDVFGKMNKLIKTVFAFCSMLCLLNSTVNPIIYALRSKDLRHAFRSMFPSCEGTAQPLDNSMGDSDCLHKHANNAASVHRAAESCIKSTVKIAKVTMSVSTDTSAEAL

Row | SMILES | inhibition (Cannabinoid receptor 1 [1]) [%] | Ratio IC50 (Homo sapiens) | IC50 (Cannabinoid receptor 2) [nM] | EC50 (Cannabinoid receptor 1 [2]) [nM] | IC50 (Cannabinoid receptor 1 [3]) [nM]
1 | O=C(Cn1nc(-c2ccc(Cl)cc2Cl)c(-c2ccc(Cl)cc2Cl)n1)N1CCCCC1 |  |  | 5900 |  | 
2 | O=C(Cn1nc(-c2ccc(Cl)cc2Cl)c(-c2ccc(Cl)cc2Cl)n1)NCc1ccccc1 |  | > 1000 | > 10000 | 87 | 
3 | O=C(Cn1nc(-c2ccc(Cl)cc2Cl)c(-c2ccc(Cl)cc2Cl)n1)NCc1ccccc1Cl |  | > 1000 | > 10000 | 12.2 | 
4 | O=C(NC12CC3CC(CC(C3)C1)C2)n1nc(-c2ccc(Cl)cc2)c(-c2ccc(Cl)cc2Cl)n1 | 34.5 | > 1000 |  |  | 
5 | O=C(Cn1nc(-c2ccc(Cl)cc2Cl)c(-c2ccc(Cl)cc2Cl)n1)NCc1cccc(F)c1 |  | > 1000 | > 10000 | 35.1 | 
6 | CCCCOC(=O)Cn1nc(-c2ccc(Cl)cc2Cl)c(-c2ccc(Cl)cc2Cl)n1 |  | > 1000 |  |  | 
7 | O=C(Cn1nc(-c2ccc(Cl)cc2)c(-c2ccc(Cl)cc2Cl)n1)NCc1ccccc1 |  | > 1000 | > 10000 | 216 | 
8 | O=C(NC1CCCCC1)n1nc(-c2ccc(Cl)cc2Cl)c(-c2ccc(Cl)cc2Cl)n1 | 29.2 | > 1000 |  |  | 
9 | O=C(NCc1ccccc1)n1nc(-c2ccc(Cl)cc2)c(-c2ccc(Cl)cc2Cl)n1 | 18.6 | > 1000 |  |  | 
10 | O=C(Cn1nc(-c2ccc(Cl)cc2Cl)c(-c2ccc(Cl)cc2Cl)n1)NCc1ccccc1F |  | > 1000 | > 10000 | 23.5 | 
11 | CCCCOC(=O)Cn1nnc(-c2ccc(Cl)cc2)c1-c1ccc(Cl)cc1 | 64.1 | > 1000 |  |  | 
12 | O=C(NC1CCCCC1)n1nc(-c2ccc(Cl)cc2)c(-c2ccc(Cl)cc2)n1 | 19.9 | > 1000 |  |  | 
13 | O=C(Cn1nc(-c2ccc(Cl)cc2Cl)c(-c2ccc(Cl)cc2Cl)n1)NCc1ccc(Cl)cc1 |  | > 1000 | > 10000 | 17.8 | 
14 | O=C(Cn1nnc(-c2ccc(Cl)cc2Cl)c1-c1ccc(Cl)cc1Cl)N1CCCCC1 | 55.7 | > 1000 |  |  | 
15 | O=C(NCc1ccccc1)n1nc(-c2ccc(Cl)cc2Cl)c(-c2ccc(Cl)cc2Cl)n1 | 23.8 | > 1000 |  |  | 
16 | O=C(Cn1nc(-c2ccc(Cl)cc2Cl)c(-c2ccc(Cl)cc2Cl)n1)Oc1ccccc1 | 14.3 | > 1000 |  |  | 
17 | O=C(NC12CC3CC(CC(C3)C1)C2)n1nc(-c2ccc(Cl)cc2Cl)c(-c2ccc(Cl)cc2Cl)n1 | 78.9 | > 1000 |  |  | 
18 | O=C(Cn1nc(-c2ccc(Cl)cc2Cl)c(-c2ccc(Cl)cc2Cl)n1)Nc1ccccc1 |  | > 1000 | > 10000 | 136 | 

Second part, the molecule after the results:

Row | inhibition (Cannabinoid receptor 1 [1]) [%] | Ratio IC50 (Homo sapiens) | IC50 (Cannabinoid receptor 2) [nM] | EC50 (Cannabinoid receptor 1 [2]) [nM] | IC50 (Cannabinoid receptor 1 [3]) [nM] | SMILES
19 | 46.1 | > 1000 |  |  |  | CCCCOC(=O)Cn1nnc(-c2ccc(Cl)cc2Cl)c1-c1ccc(Cl)cc1Cl
20 | 30.5 | > 1000 |  |  |  | O=C(NC1CCCCC1)n1nc(-c2ccc(Cl)cc2)c(-c2ccc(Cl)cc2Cl)n1
21 |  | > 1000 | > 10000 | 235 |  | O=C(Cn1nc(-c2ccc(Cl)cc2)c(-c2ccc(Cl)cc2Cl)n1)NCc1ccc(F)cc1
22 | 19.7 | > 1000 |  |  |  | O=C(NC12CC3CC(CC(C3)C1)C2)n1nc(-c2ccc(Cl)cc2)c(-c2ccc(Cl)cc2)n1
23 |  | > 1000 | > 10000 | 56.2 |  | COc1ccc(CNC(=O)Cn2nc(-c3ccc(Cl)cc3Cl)c(-c3ccc(Cl)cc3Cl)n2)cc1
24 |  | > 1000 | > 10000 | 50.7 |  | O=C(Cn1nc(-c2ccc(Cl)cc2Cl)c(-c2ccc(Cl)cc2Cl)n1)NCc1ccc(F)cc1
25 |  | > 1000 | > 10000 | 22 | 22.6 | O=C(Cn1nc(-c2ccc(Cl)cc2Cl)c(-c2ccc(Cl)cc2Cl)n1)NCc1cc(F)ccc1F
26 |  | > 1000 | > 10000 | 204 |  | O=C(Cn1nc(-c2ccc(Cl)cc2Cl)c(-c2ccc(Cl)cc2Cl)n1)NC1CCCCC1
27 |  | > 1000 | > 10000 | 256 |  | O=C(Cn1nc(-c2ccc(Cl)cc2)c(-c2ccc(Cl)cc2Cl)n1)NCc1ccccc1F
28 | 33 | > 1000 |  |  |  | O=C(Cn1nnc(-c2ccc(Cl)cc2)c1-c1ccc(Cl)cc1)N1CCCCC1
